Results: article PMC7756412 (2020)

Key:
[1] = tested on: Myc-dup3 (DNA, G4) TGAGGGTGGGTAGGGTGGGCTAGTCATTTTGACTAG; assay: ITC, two-site fit; details: 120 mM K+; 100 mM KCl, 20 mM potassium phosphate pH 7.0, 5% DMSO, 40 °C; high-affinity site
[2] = tested on: Myc3l-dup5 (DNA, G4) GATCAGTTTTACTGATCGGGTGGTGGGTGGGGAAGG; assay: ITC, two-site fit; details: 120 mM K+; 100 mM KCl, 20 mM potassium phosphate pH 7.0, 5% DMSO, 40 °C; high-affinity site
[3] = tested on: Myc-dup3 (DNA, G4) TGAGGGTGGGTAGGGTGGGCTAGTCATTTTGACTAG; assay: CD melting, 265 nm; details: 120 mM Na+; 100 mM NaCl, 20 mM sodium phosphate pH 7; 5 µM DNA, 1 equiv PIQ; quadruplex domain; 44.7 to 68.2 °C
[4] = tested on: Myc-dup3 (DNA, G4) TGAGGGTGGGTAGGGTGGGCTAGTCATTTTGACTAG; assay: UV melting, 260 nm; details: 120 mM Na+; 100 mM NaCl, 20 mM sodium phosphate pH 7; 1 equiv PIQ; duplex domain; derived from two Tm (63.6, 70.8)
[5] = tested on: Myc-dup5 (DNA, G4) GATCAGTTTTACTGATCGGGTGGGTAGGGTGGGTA; assay: CD melting, 265 nm; details: 120 mM Na+; 100 mM NaCl, 20 mM sodium phosphate pH 7; 5 µM DNA, 1 equiv PIQ; quadruplex domain; 53.2 to 69.7 °C
[6] = tested on: Myc-dup5 (DNA, G4) GATCAGTTTTACTGATCGGGTGGGTAGGGTGGGTA; assay: UV melting, 260 nm; details: 120 mM Na+; 100 mM NaCl, 20 mM sodium phosphate pH 7; 1 equiv PIQ; duplex domain; derived from two Tm (67.8, 73.5)
[7] = tested on: Myc3l-dup5 (DNA, G4) GATCAGTTTTACTGATCGGGTGGTGGGTGGGGAAGG; assay: CD melting, 265 nm; details: 120 mM Na+; 100 mM NaCl, 20 mM sodium phosphate pH 7; 1 equiv PIQ; quadruplex domain; derived from two Tm (66.3, 73.8)
[8] = tested on: Myc3l-dup5 (DNA, G4) GATCAGTTTTACTGATCGGGTGGTGGGTGGGGAAGG; assay: UV melting, 260 nm; details: 120 mM Na+; 100 mM NaCl, 20 mM sodium phosphate pH 7; 1 equiv PIQ; duplex domain; derived from two Tm (69.5, 76.1)
[9] = tested on: Myc-dup5 (DNA, G4) GATCAGTTTTACTGATCGGGTGGGTAGGGTGGGTA; assay: NMR titration, chemical shift perturbation; details: K+ (10 mM potassium phosphate); pH 7.0, 20 °C; 5' quadruplex-duplex junction; ITC isotherm not reliably fitted (Ka n.d.)

- Ka [1]: (1.6±0.4)×10^7 M^-1
- Ka [2]: (1.6±0.2)×10^7 M^-1
- ΔTm [3]: 23 °C
- ΔTm [4]: 7.2 °C
- ΔTm [5]: 17 °C
- ΔTm [6]: 5.7 °C
- ΔTm [7]: 7.5 °C
- ΔTm [8]: 6.6 °C
- binding [9]: yes
SMILES: CCN(CC)CCCNC(=O)c1ccc(-c2c3cccc(C)c3[n+](C)c3c2[nH]c2c(C)cccc23)cc1
